Assay: xn = mol fraction of the nth substance listed
Details: for surface tension liquid-gas: Maximal bubble pressure; for mass density: 100 kPa, Liquid, Vibrating tube method

CCn1cc[n+](CCOC)c1.O=S(=O)([O-])C(F)(F)F + CC(C)O
Details	mass density [kg/m3]	surface tension liquid-gas [mN/m]
288.15 K, x1 = 0.0997	929.227	21.4
288.15 K, x1 = 0.2004	1030.66	22.3
288.15 K, x1 = 0.3004	1105.98	23.8
288.15 K, x1 = 0.4003	1163.83	25.5
288.15 K, x1 = 0.5004	1210.18	27.2
288.15 K, x1 = 0.6008	1248.32	28.9
288.15 K, x1 = 0.7	1279.5	30.8
288.15 K, x1 = 0.7998	1306.12	32.8
288.15 K, x1 = 0.9003	1329.28	34.5
288.15 K, x1 = 1	1348.94	36.3
293.15 K, x1 = 0.0997	925.015	21.1
293.15 K, x1 = 0.2004	1026.4	22
293.15 K, x1 = 0.3004	1101.69	23.6
293.15 K, x1 = 0.4003	1159.55	25.3
293.15 K, x1 = 0.5004	1205.9	27
293.15 K, x1 = 0.6008	1244.05	28.6
293.15 K, x1 = 0.7	1275.23	30.6
293.15 K, x1 = 0.7998	1301.86	32.6
293.15 K, x1 = 0.9003	1325.01	34.3
293.15 K, x1 = 1	1344.66	36.1
298.15 K, x1 = 0.0997	920.772	20.7
298.15 K, x1 = 0.2004	1022.12	21.7
298.15 K, x1 = 0.3004	1097.4	23.3
298.15 K, x1 = 0.4003	1155.27	25
298.15 K, x1 = 0.5004	1201.63	26.7
298.15 K, x1 = 0.6008	1239.8	28.4
298.15 K, x1 = 0.7	1270.99	30.4
298.15 K, x1 = 0.7998	1297.61	32.3
298.15 K, x1 = 0.9003	1320.76	34.1
298.15 K, x1 = 1	1340.41	35.8
303.15 K, x1 = 0.0997	916.497	20.3
303.15 K, x1 = 0.2004	1017.82	21.5
303.15 K, x1 = 0.3004	1093.11	23.1
303.15 K, x1 = 0.4003	1150.99	24.8
303.15 K, x1 = 0.5004	1197.38	26.5
303.15 K, x1 = 0.6008	1235.56	28.2
303.15 K, x1 = 0.7	1266.76	30.1
303.15 K, x1 = 0.7998	1293.38	32.1
303.15 K, x1 = 0.9003	1316.53	33.9
303.15 K, x1 = 1	1336.17	35.5
308.15 K, x1 = 0.0997	912.188	20
308.15 K, x1 = 0.2004	1013.52	21.2
308.15 K, x1 = 0.3004	1088.82	22.8
308.15 K, x1 = 0.4003	1146.73	24.6
308.15 K, x1 = 0.5004	1193.13	26.3
308.15 K, x1 = 0.6008	1231.33	28
308.15 K, x1 = 0.7	1262.54	29.8
308.15 K, x1 = 0.7998	1289.17	31.9
308.15 K, x1 = 0.9003	1312.32	33.6
308.15 K, x1 = 1	1331.96	35.3
313.15 K, x1 = 0.0997	907.842	19.7
313.15 K, x1 = 0.2004	1009.19	21
313.15 K, x1 = 0.3004	1084.53	22.6
313.15 K, x1 = 0.4003	1142.47	24.4
313.15 K, x1 = 0.5004	1188.9	26.1
313.15 K, x1 = 0.6008	1227.11	27.8
313.15 K, x1 = 0.7	1258.34	29.6
313.15 K, x1 = 0.7998	1284.98	31.7
313.15 K, x1 = 0.9003	1308.13	33.3
313.15 K, x1 = 1	1327.77	35.1
318.15 K, x1 = 0.0997	903.442	19.4
318.15 K, x1 = 0.2004	1004.85	20.7
318.15 K, x1 = 0.3004	1080.23	22.4
318.15 K, x1 = 0.4003	1138.22	24.2
318.15 K, x1 = 0.5004	1184.68	25.9
318.15 K, x1 = 0.6008	1222.91	27.6
318.15 K, x1 = 0.7	1254.16	29.4
318.15 K, x1 = 0.7998	1280.8	31.5
318.15 K, x1 = 0.9003	1303.96	33.1
318.15 K, x1 = 1	1323.6	34.9
